# Legend:
# Type in all cases: cell-based
# [1] = test system: AKT-1; assay: Immunoprecipitation and anti-phospho-Akt Western blot, AKT-1
# Method: (§1) MDA-MB-435 and MDA-MB-435/HER-2 cells were obtained from Dr. Yu at the UTMD Anderson Cancer Center, Houston, Tex. Cells were grown in RPMI 1640 supplemented as above in 8% CO2 at 37° C. Western blotting was done as follows. Cells were lysed in lysis buffer (50 mM Tris-HCl, pH 7.4, 150 mM sodium chloride, 1 mM EDTA, 1% Nonidet P-40, 1 mM sodium orthovanadate, 1 mM sodium fluoride, 1 mM phenylmethylsulfonyl fluoride, 2 ug/ml pepstatin, 2 ug/ml leupeptin, 2 ug/ml aprotinin), centrifuged at 4° C. for 5 min at 6500 g, and protein concentration was determined with a BioRad Protein Assay Kit (BioRad, Hercules, Cailf.). Proteins were separated by electrophoresis using a Bis-Tris NuPAGE system with 1× MOPS running buffer (Novex, San Diego, Cailf.) and transferred to Hybond C-extra membrane (Amersham Pharmacia Biotech, Piscataway, N.J.). Membranes were blocked with non-fat dry milk, incubated with the appropriate antibodies, washed with PBS (phosphate buffered saline) and incubated with horseradish peroxidase-conjugated secondary antibody. […]
# (§2) The activated (phosphorylated) state of total AKT (AKT-1 plus AKT-2) in cells over-expressing HER-2/neu was measured to study the functional significance of c-akt in HER-2/neu over-expressing cells and cancers. […] Activated AKT was determined by antibodies that specifically recognize the phosphorylated state of AKT protein. […]
# [2] = test system: total AKT (AKT-1 plus AKT-2); assay: Western blot of activated (phosphorylated) total AKT in HER-2/neu over-expressing cells; details: SKBR3, BR474, AU565 cells, Heregulin 10 ng/ml or Herceptin 20 mg/ml
# Method: as §1, §2
# [3] = test system: AKT-2; assay: Immunoprecipitation and anti-phospho-Akt Western blot, AKT-2
# Method: as §1, §2
# [4] = SKBR3, BR474, AU565 cells, Heregulin 10 ng/ml or Herceptin 20 mg/ml, Western blot
substance,measurement,setting,value
Heregulin,AKT-1 phosphorylation,[1]; [4],increased
same,phosphorylated state of AKT-1,[1]; exposure for 3 days,down-regulation
same,phosphorylation of total AKT,[2],increased
same,level of AKT-2 phosphorylation after treatment,[3]; [4],remained high
same,phosphorylated state of AKT-2,[3]; exposure for 3 days,did not affect
